# Test results reported in patent publication US11360010B1, “Methods and device for controlled cell stretch and imaging” (The Regents of the University of Colorado, a body, priority 2019, dated 2022).
# Entries after “also recorded” stand apart in the source; their conditions may differ.
# Key:
# Format in all cases: cell-based
# [1] = tested on: mouse embryonic skin fibroblasts (MSFs); experiment: Nuclear strain transfer from membrane to nucleus after cyclic stretch; details: after 30 min of 20% cyclic strain; relaxed vs stretched images; cytochalasin D 2 μM vs NT cells
# Experimental: Transgenic mice harboring a fluorescence tag at the H2b histone—B6.Cg-Tg (HIST1H2BB/EGFP) 1 Pa/J, Stock No: 006069—were obtained from Jackson Laboratory (Bar Harbor, Me.). All animal procedures were performed following Institutional Animal Care & Use Committee approval. Skin from embryonic mice was harvested 18.5 days post-conception. Skin was minced, washed with Hank's Balanced Salt Solution (HBSS), and incubated in 35 mm dishes in shallow medium (˜0.5 mL) to avoid floating of the tissue for 4 days, during which fibroblasts extruded from the tissue. After 4 days, remaining tissue was removed (picked out with a pipette), and extruded cells in the dish were detached using TrypLE (Gibco, Gaithersburg, Md.) and expanded in culture for another 2 days before being seeded into stretch chambers for experiments. […] To test the use of chromatin dyes, cells were stained with Hoechst (NucBlue Live ReadyProbes; Life Technologies) 30 min before experiments. […]
# To analyze the amount of strain transferred from the membrane to the nucleus after cyclic stretch routines, image stacks of nuclei were acquired under relaxed or stretched conditions, and bulk nuclear strain was calculated from the change in nuclear area using the same MATLAB script as above. Note that nuclear strain transfer could not be accurately analyzed before stretch routines because of the fast response in area decline.
# [2] = tested on: mouse embryonic skin fibroblasts (MSFs); experiment: Perinuclear F-actin and γH2a.x staining after cyclic stretch routines; details: cytochalasin D 2 μM
# Experimental: (§1) Transgenic mice harboring a fluorescence tag at the H2b histone—B6.Cg-Tg (HIST1H2BB/EGFP) 1 Pa/J, Stock No: 006069—were obtained from Jackson Laboratory (Bar Harbor, Me.). All animal procedures were performed following Institutional Animal Care & Use Committee approval. Skin from embryonic mice was harvested 18.5 days post-conception. Skin was minced, washed with Hank's Balanced Salt Solution (HBSS), and incubated in 35 mm dishes in shallow medium (˜0.5 mL) to avoid floating of the tissue for 4 days, during which fibroblasts extruded from the tissue. After 4 days, remaining tissue was removed (picked out with a pipette), and extruded cells in the dish were detached using TrypLE (Gibco, Gaithersburg, Md.) and expanded in culture for another 2 days before being seeded into stretch chambers for experiments. The inner well of assembled stretch chambers was ozone activated for 30 s via corona arc discharge (BD-20; Electro-Technic Products) and coated with 50 μg/mL bovine plasma fibronectin (F1141; Sigma-Aldrich) in a total volume of 250 μL overnight at 37° C. Mouse embryonic skin fibroblasts (MSFs) were seeded into stretch chambers at a density of 80,000 cells/cm′ 1 day before experiments. MSFs were extruded and cultured in DMEM (ATCC, Manassas, Va.) containing 10% fetal bovine serum (Gibco), 1% penicillin-streptomycin (Gibco), and 25 mM HEPES (Gibco) at 37° C. and 5% CO2. To inhibit calcium signaling, MSFs were incubated with 50 μM BAPTA (A4926; Sigma-Aldrich) or 10 μM KN-62 (12142; Sigma-Aldrich) 1 h before cyclic strain experiments. To disrupt actin polymerization, MSFs were incubated with 2 μM cytochalasin D (C8273; Sigma-Aldrich) 30 min before experiments. Vehicle controls were incubated with 0.001% DMSO (276855; Sigma-Aldrich) 1 h before experiments. To test the use of chromatin dyes, cells were stained with Hoechst (NucBlue Live ReadyProbes; Life Technologies) 30 min before experiments. Stretch experiments were performed at 25° C. (room temperature) under humidified conditions.
# MSFs were fixed in 4% ice-cold paraformaldehyde (PFA) for 10 min, permeabilized with 1% Triton-X100 in phosphate-buffered saline for 15, min and blocked with 10% NGS, 1% bovine serum albumin in 0.1% PBT (0.1% Tween-20 in phosphate-buffered saline) for 60 min. Primary incubation of Phospho-Histone H2A.X Ser139 (9718S; Cell Signaling Technology, Danvers, Mass.) was performed at 4° C. overnight in 0.1% PBT containing 1% bovine serum albumin at 1:400. Secondary incubation of goat anti-rabbit IgG-AF546 (Life Technologies) was performed in primary incubation buffer for 45 min at 22° C. at a dilution of 1:500. F-actin was counterstained with phalloidin-CF405 (Biotium, Fremont, Calif.) for 30 min at a dilution of 1:30. Staining was performed in containment wells. After staining, membranes were cut out of the containment well using a circular punch and mounted cell-side up onto #1.0 glass slides with ProLong Diamond Antifade Mountant (Life Technologies). Image stacks (5 μm, 1 μm step) of multiple nuclei in a 318×318 μm area were acquired on a Nikon MR confocal microscope using a 40× oil immersion objective (0.31 μm/pixel). A custom MATLAB code was used to track nuclear outlines via H2b-eGFP and to quantify perinuclear F-actin intensities and γH2a.x foci in projected image stacks. Only the projected F-actin within the nuclear outline (apical perinuclear F-actin) was counted in this analysis. To account for variations in staining and imaging (the same imaging settings were used), fluorescence channels were histogram normalized. Perinuclear F-actin intensities were calculated as the sum of normalized phalloidin intensities within a nuclear border. DNA damage foci were determined by detecting 2D peaks in the normalized γH2a.x channel using the MATLAB script FastPeakFind (v. 1.7).
# [3] = tested on: mouse embryonic skin fibroblasts (MSFs); experiment: Live imaging of nuclear area and chromatin condensation (H2b-eGFP) during cyclic stretch routines; details: BAPTA 50 μM, KN-62 10 μM, cytochalasin D 2 μM
# Experimental: as §1
# The stretch device was mounted on an inverted epi-fluorescence microscope (Ti-Eclipse; Nikon) with a 60× water immersion objective (0.26 μm/pixel) and an EMCCD camera (iXonEM+; Andor Technology). The surrounding of the microscope was humidified to prevent the water on the objective from evaporating during the 1 h experiment. Oil immersion is also possible, but water immersion provided better image quality with the silicone membranes used.
# Using MATLAB, a sinusoidal control signal (1 Hz) was sent to the Arduino controller, resulting in a cyclic stretch routine of the membrane (FIG. 1C), with peak strains set to 5% (−0.1 V), 10% (−0.9 V), and 20% (−2.25 V) as determined by the calibration curve. Cells were cyclically stretched for 30 min, followed by 30 min of rest, during which 2 μm z-stacks (0.5 μm steps) of nuclei were acquired. During the rest period, cells experienced no stretch but a constant magnetic field using the offset Arduino input voltage (0.8 V) that keeps the piston suspended at 0% stretch. For acquisition, the cyclic stretch routine was paused for 1 min to allow for a steady imaging plane and fine readjustments in z-position due to water evaporation. Unstretched control cells (0%) were seeded into stretch chambers but kept stationary on the microscope without any magnetic field applied. Unstretched magnetic control cells (MAG) were placed stationary inside the coil without the piston, and a magnetic field corresponding to a 20% sinusoidal stretch routine was applied.
# A custom MATLAB code was used to track nuclear outlines via H2b-eGFP and to generate H2b intensity histograms during an image series, from which changes in nuclear area, H2b skewness, and H2b kurtosis were calculated.
# [4] = after 30 min 5% cyclic stretch, vs NT or VH control cells, BAPTA 50 μM, KN-62 10 μM
# [5] = after 30 min 5% cyclic stretch, vs NT or VH control cells, BAPTA 50 μM, KN-62 10 μM, listed as CD
# [6] = after 30 min 20% cyclic stretch, vs NT or VH control cells, BAPTA 50 μM, KN-62 10 μM
# [7] = after 30 min 20% cyclic stretch, vs NT or VH control cells, BAPTA 50 μM, KN-62 10 μM, listed as CD
# [8] = static magnetic-field-only routine (MAG), no stretch
compound,measurement,setting,value
"C=C1[C@@H](C)[C@H]2[C@H](Cc3ccccc3)NC(=O)[C@]23[C@H](OC(C)=O)/C=C/[C@@](C)(O)C(=O)[C@@H](C)C/C=C/[C@H]3[C@@H]1O [cyto D, cytochalasin D]",strain transferred from membrane to nuclei (nuclear strain),[1],higher nuclear strains; also recorded: increase
same,"number of γH2a.x foci per nucleus (DNA damage, double-strand breaks)",[2]; [4],distinctly increased
same,perinuclear F-actin intensities,[2]; [4],increased
same,"number of γH2a.x foci per nucleus (DNA damage, double-strand breaks)",[2]; [5],increased number of foci
same,perinuclear F-actin intensities,[2]; [5],altered F-actin intensities
same,"number of γH2a.x foci per nucleus (DNA damage, double-strand breaks)",[2]; [6],distinctly increased
same,perinuclear F-actin intensities,[2]; [6],abrogated
same,"number of γH2a.x foci per nucleus (DNA damage, double-strand breaks)",[2]; [7],increased number of foci
same,perinuclear F-actin intensities,[2]; [7],altered F-actin intensities
same,perinuclear F-actin intensities,[2]; after magnetic-field-only routine (MAG),showed no effect
same,"number of γH2a.x foci per nucleus (DNA damage, double-strand breaks)","[2]; static magnetic-field-only controls (MAG), BAPTA 50 μM, KN-62 10 μM",had no effect
same,change in nuclear area,"[3]; 30 min 5% cyclic strain, 1 Hz, vs NT/VH cells (area increases)",abrogated the increase in nuclear area
same,change in nuclear area,"[3]; 30 min 5% cyclic strain, 1 Hz, vs NT/VH cells (area increases), listed as CD",inhibited changes in nuclear area
same,chromatin condensation (H2b histogram kurtosis and skewness),"[3]; 30 min 5% cyclic strain, 1 Hz, vs NT/VH cells (condensation decreases)",distinctly increased chromatin condensation
same,chromatin condensation (H2b histogram kurtosis and skewness),"[3]; 30 min 5% cyclic strain, 1 Hz, vs NT/VH cells (condensation decreases), listed as CD",inhibited changes in nuclear area and chromatin condensation
same,change in nuclear area,"[3]; 30 min 20% cyclic strain, 1 Hz, vs NT/VH cells (area decreases)",inhibited nuclear shrinkage
same,change in nuclear area,"[3]; 30 min 20% cyclic strain, 1 Hz, vs NT/VH cells (area decreases), listed as CD",inhibited changes in nuclear area
same,chromatin condensation (H2b histogram kurtosis and skewness),"[3]; 30 min 20% cyclic strain, 1 Hz, vs NT/VH cells (condensation increases)",inhibited nuclear shrinkage and chromatin condensation
same,chromatin condensation (H2b histogram kurtosis and skewness),"[3]; 30 min 20% cyclic strain, 1 Hz, vs NT/VH cells (condensation increases), listed as CD",inhibited changes in nuclear area and chromatin condensation
same,change in nuclear area,[3]; [8],showed no effect
same,chromatin condensation (H2b histogram kurtosis and skewness),[3]; [8],showed no effect
